From patent US6525059B1, “Substituted pyrazoles as p38 kinase inhibitors” (G. D. Searle & Company, priority 1998, dated 2003) come the findings set out here.

For the first assay, the target named is T1, human p38 kinase alpha (Homo sapiens, UniProt Q16539).
T1 construct: The coding region of the human p38a cDNA was obtained by PCR-amplification from RNA isolated from the human monocyte cell line THP.1; GST (N); made in house; host or cells: E. coli DH10B
T1 sequence (Q16539 whole entry): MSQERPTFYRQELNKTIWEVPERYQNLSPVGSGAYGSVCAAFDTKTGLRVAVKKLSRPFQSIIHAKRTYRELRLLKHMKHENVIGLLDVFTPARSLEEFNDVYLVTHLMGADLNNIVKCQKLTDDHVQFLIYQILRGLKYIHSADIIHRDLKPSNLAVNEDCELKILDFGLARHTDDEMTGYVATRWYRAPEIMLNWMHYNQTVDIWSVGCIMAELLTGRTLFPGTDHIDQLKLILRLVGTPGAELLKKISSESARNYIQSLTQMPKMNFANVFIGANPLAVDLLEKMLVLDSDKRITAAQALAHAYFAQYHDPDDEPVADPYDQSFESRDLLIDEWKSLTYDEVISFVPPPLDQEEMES
As to the kind of experiment: p38 kinase in vitro assay, phosphorylation of biotinylated PHAS-I with gamma 32P-ATP. It counts as biochemical. The conditions noted are these: @ 1.0 uM. Here is the method:
The ability of compounds to inhibit human p38 kinase alpha was evaluated using two in vitro assay methods. In the first method activated human p38 kinase alpha phosphorylates a biotinylated substrate, PHAS-I (phosphorylated heat and acid stable protein-insulin inducible), in the presence of gamma ^32P-ATP (^32P-ATP). PHAS-I was biotinylated prior to the assay and provides a means of capturing the substrate which is phosphorylated during the assay. p38 Kinase was activated by MKK6. Compounds were tested in 10 fold serial dilutions over the range of 100 μM to 0.001 μM using 1% DMSO. Each concentration of inhibitor was tested in triplicate.
All reactions were carried out in 96 well polypropylene plates. Each reaction well contained 25 mM HEPES pH 7.5, 10 mM magnesium acetate and 50 μM unlabeled ATP. […] The reaction proceeded either for one hour or overnight at 30° C.
Following incubation, 20 μl of reaction mixture was transferred to a high capacity streptavidin coated filter plate (SAM-streptavidin-matrix, Promega) prewetted with phosphate buffered saline. […] Filter plates were air dried and 20 μl of scintillant was added. The plates were sealed and counted.
Regarding `O=C(NCc1[nH]nc(-c2ccc(F)cc2)c1-c1ccncc1)c1cccc2ccccc12` [Example B-0037], the “P38 alpha kinase % inhib @ conc.” value was determined as 91.0% @ 1.0 uM.
In the case of `N#Cc1ccc(C(=O)NCc2[nH]nc(-c3ccc(F)cc3)c2-c2ccncc2)cc1` [Example B-0001], the “P38 alpha kinase % inhib @ conc.” value came to 53.0% @ 1.0 uM.
Turning to `O=C(NCc1[nH]nc(-c2ccc(F)cc2)c1-c1ccncc1)c1ccc(OC(F)(F)F)cc1` [Example B-0028], the “P38 alpha kinase % inhib @ conc.” value was 69.0% @ 1.0 uM.
Turning to `CCC(C(=O)NCc1[nH]nc(-c2ccc(F)cc2)c1-c1ccncc1)c1ccccc1` (centres unmarked) [Example B-0048], the “P38 alpha kinase % inhib @ conc.” value is 94.0% @ 1.0 uM.
In the case of `O=C(NCc1[nH]nc(-c2ccc(F)cc2)c1-c1ccncc1)c1cc(C(F)(F)F)ccc1F` [Example B-0050], the “P38 alpha kinase % inhib @ conc.” value was 73% @ 1.0 uM.
Take `O=C(NCc1[nH]nc(-c2ccc(F)cc2)c1-c1ccncc1)C1CCCN1C(=O)C(F)(F)F` (centres unmarked) [Example B-0094]: the “P38 alpha kinase % inhib @ conc.” value is 96% @ 1.0 uM.
Take `O=C(NCc1[nH]nc(-c2ccc(F)cc2)c1-c1ccncc1)C(F)(F)C(F)(F)C(F)(F)F` [Example B-0046]: the “P38 alpha kinase % inhib @ conc.” value is on record as 96.0% @ 1.0 uM.

Staying with this assay, now noted: @ 1.0 uM; read-out: P38 alpha kinase % inhib @ conc.
With `COc1cc(C)c(S(=O)(=O)NCc2[nH]nc(-c3ccc(F)cc3)c2-c2ccncc2)c(C)c1C` [Example B-0137], the inhibition at 1 µM was 41%.
Consider `O=C(NCc1[nH]nc(-c2ccc(F)cc2)c1-c1ccncc1)c1ccno1` [Example B-0054], for which the inhibition at 1 µM was 90%.
`O=S(=O)(NCc1[nH]nc(-c2ccc(F)cc2)c1-c1ccncc1)c1ccccc1F` [Example B-0133]: the inhibition at 1 µM was determined as 51%.
For the compound `O=C(NCc1[nH]nc(-c2ccc(F)cc2)c1-c1ccncc1)c1ccccc1` [Example B-0063], the inhibition at 1 µM was 96%.
`O=S(=O)(NCc1[nH]nc(-c2ccc(F)cc2)c1-c1ccncc1)c1ccc(Cl)s1` [Example B-0144]: the inhibition at 1 µM was determined as 86%.
With `Cc1cccc(C(=O)NCc2[nH]nc(-c3ccc(F)cc3)c2-c2ccncc2)c1` [Example B-0067], the inhibition at 1 µM was found to be 91%.
Same read-out and setting: with `CC(C)[C@H]1CC[C@@H](C)C[C@@H]1OCC(=O)NCc1[nH]nc(-c2ccc(F)cc2)c1-c1ccncc1` [Example B-0084] the figure was 56%; with `COc1ccc(NC(=O)NCc2[nH]nc(-c3ccc(F)cc3)c2-c2ccncc2)c(OC)c1` [Example B-0167], 40%.
On to `O=C(NCc1[nH]nc(-c2ccc(F)cc2)c1-c1ccncc1)c1ccc(F)cc1C(F)(F)F` [Example B-0062], for which the inhibition at 1 µM stood at 94%.
Still for that read-out and setting: to `O=C(NCc1[nH]nc(-c2ccc(F)cc2)c1-c1ccncc1)c1cccc(F)c1` [Example B-0069] belongs 96%; to `COC(=O)CC(=O)NCc1[nH]nc(-c2ccc(F)cc2)c1-c1ccncc1` [Example B-0091], 96%.

The assay is the same for the next values; noted with them: @ 10.0 uM; read-out: P38 alpha kinase % inhib @ conc.
As for `O=C(NCc1[nH]nc(-c2ccc(F)cc2)c1-c1ccncc1)Nc1cccc(Cl)c1Cl` [Example B-0192], the inhibition at 10 µM is 12%.
`O=C(NCc1[nH]nc(-c2ccc(F)cc2)c1-c1ccncc1)Nc1ccc(Cl)c(Cl)c1` [Example B-0173]: the inhibition at 10 µM turned out to be 33%.
Take `CCCCN(CCCC)c1cccc2c(S(=O)(=O)NCc3[nH]nc(-c4ccc(F)cc4)c3-c3ccncc3)cccc12` [Example B-0139]: the inhibition at 10 µM is 54%.
The same measure, in the same setting: with `CCOC(=O)C(C)NC(=O)NCc1[nH]nc(-c2ccc(F)cc2)c1-c1ccncc1` (centres unmarked) [Example B-0165] the figure was 70%.

Staying with this assay, now noted: activated human p38 kinase alpha, PHAS-I substrate, 50 μM unlabeled ATP; read-out: p38 kinase IC50.
`COc1cc(F)cc(-c2[nH]nc(C)c2-c2ccncc2)c1` [Example A-25, 4-{5-(3-Fluoro-5-methoxyphenyl)-3-methyl-3-methyl-1H-pyrazol-4-yl}pyridine]: the concentration for half-maximal inhibition (IC50) was 2600 nM.

The same assay, now with this note: p38α in vitro, PHAS-I assay procedure; read-out: p38^1 IC50.
On to `Fc1ccc(CNc2cc(-c3cn(CCN4CCOCC4)nc3-c3ccc(F)cc3)ccn2)cc1` [Example A-276, N-[(4-fluorophenyl)methyl]-4-[3(or 5)-(4-fluorophenyl)-1-[[2-(4-morpholinyl)ethyl]-1H-pyrazol-4-yl]-2-pyridinamine], for which the IC50 is 176 nM.
On to `Cn1cc(-c2ccnc(NCCO)c2)c(-c2ccc(F)cc2)n1` [Example A-281, 2-[[4-[3-(4-fluorophenyl)-1-methyl-1H-pyrazol-4-yl]-2-pyridinyl]amino]ethanol], for which the IC50 was found to be 53 nM.

Staying with this assay, now noted: read-out: P38 alpha kinase IC50.
In the case of `CC(NC(=O)c1cccc(C(F)(F)F)c1)c1[nH]nc(-c2ccc(F)cc2)c1-c1ccncc1` (centres unmarked) [Example B-0672], the IC50 is 6590 nM.
As to `O=C(NCc1[nH]nc(-c2ccc(F)cc2)c1-c1ccncc1)c1cccc(F)c1F` [Example B-0293], the IC50 is 660 nM.
For the compound `C[C@@H](NC(=O)c1ccc(F)c(F)c1)c1[nH]nc(-c2ccc(F)cc2)c1-c1ccncc1` [Example B-0501], the half-inhibitory concentration (IC50) stood at 49 nM.
For `C[C@@H](NC(=O)c1ccc(Cl)cc1Cl)c1[nH]nc(-c2ccc(F)cc2)c1-c1ccncc1` [Example B-0516], the concentration for half-maximal inhibition (IC50) came out at 370 nM.
Still for that read-out and setting: with `NC(=O)NC(Cc1ccccc1)c1[nH]nc(-c2ccc(F)cc2)c1-c1ccncc1` (centres unmarked) [Example B-0724] the figure was 60 nM.
In the case of `CCCS(=O)(=O)NC(Cc1ccccc1)c1[nH]nc(-c2ccc(F)cc2)c1-c1ccncc1` (centres unmarked) [Example B-0715], the 50% inhibitory concentration (IC50) was found to be 3200 nM.
With `O=C(NCc1[nH]nc(-c2ccc(F)cc2)c1-c1ccncc1)c1ccc(C(F)(F)F)cc1F` [Example B-0283], the 50% inhibitory concentration (IC50) came out at 6660 nM.
`CC1(C)C2CCC1(CS(=O)(=O)NCc1[nH]nc(-c3ccc(F)cc3)c1-c1ccncc1)C(=O)C2` (centres unmarked) [Example B-0226]: the concentration for half-maximal inhibition (IC50) was 74 nM.
As for `CC(=O)Nc1nc(C)c(S(=O)(=O)N[C@H](C)c2[nH]nc(-c3ccc(F)cc3)c2-c2ccncc2)s1` [Example B-0430], the IC50 is 290 nM.
As for `Cc1cc(C)c(C(=O)N[C@H](C)c2[nH]nc(-c3ccc(F)cc3)c2-c2ccncc2)c(C)c1` [Example B-0505], the half-maximal inhibitory concentration (IC50) is 280 nM.
In the case of `CS(=O)(=O)NC(Cc1ccccc1)c1[nH]nc(-c2ccc(F)cc2)c1-c1ccncc1` (centres unmarked) [Example B-0763], the IC50 amounted to 15 nM.
In the case of `C[C@@H](NC(=O)c1cnc2ccccc2n1)c1[nH]nc(-c2ccc(F)cc2)c1-c1ccncc1` [Example B-0384], the IC50 was determined as 4020 nM.
Turning to `C[C@@H](NC(=O)c1ccc(F)c(F)c1F)c1[nH]nc(-c2ccc(F)cc2)c1-c1ccncc1` [Example B-0369], the IC50 was 160 nM.
Turning to `C[C@@H](NS(=O)(=O)c1ccc(Cl)s1)c1[nH]nc(-c2ccc(F)cc2)c1-c1ccncc1` [Example B-0473], the IC50 was 4 nM.
On to `Cc1cc(C)c(C(=O)NCc2[nH]nc(-c3ccc(F)cc3)c2-c2ccncc2)c(C)c1` [Example B-0280], for which the IC50 was 860 nM.
Regarding `COc1ccc(Cl)cc1S(=O)(=O)NC(C)c1[nH]nc(-c2ccc(F)cc2)c1-c1ccncc1` (centres unmarked) [Example B-0655], the IC50 worked out at 1250 nM.
In the case of `CC(NS(=O)(=O)c1ccc(C(F)(F)F)cc1)c1[nH]nc(-c2ccc(F)cc2)c1-c1ccncc1` (centres unmarked) [Example B-0459], the half-maximal inhibitory concentration (IC50) stood at 99 nM.
With `O=C(NCc1[nH]nc(-c2ccc(F)cc2)c1-c1ccncc1)c1ccccc1F` [Example B-0297], the IC50 was 780 nM.
`Cc1ccc(S(C)(=O)=O)cc1S(=O)(=O)N[C@H](C)c1[nH]nc(-c2ccc(F)cc2)c1-c1ccncc1` [Example B-0491]: the half-inhibitory concentration (IC50) was 430 nM.
Same read-out and setting: with `C[C@@H](NS(=O)(=O)c1ccc(Cl)cc1Cl)c1[nH]nc(-c2ccc(F)cc2)c1-c1ccncc1` [Example B-0448] the figure was 400 nM; with `C[C@@H](NC(=O)C1CC1)c1[nH]nc(-c2ccc(F)cc2)c1-c1ccncc1` [Example B-0361], 330 nM; with `O=C(O)CCc1[nH]nc(-c2ccc(F)cc2)c1-c1ccncc1` [Example C-135, 4-(4-(4-PYRIDYL)-3-(4-FLUOROPHENYL)PYRAZOLYL)PROPIONIC ACID], 6000 nM.
Turning to `CC(NC(=O)c1ccc(F)cc1C(F)(F)F)c1[nH]nc(-c2ccc(F)cc2)c1-c1ccncc1` (centres unmarked) [Example B-0688], the IC50 stood at 660 nM.
On to `CCCS(=O)(=O)N[C@H](C)c1[nH]nc(-c2ccc(F)cc2)c1-c1ccncc1` [Example B-0393], for which the half-inhibitory concentration (IC50) was determined as 43 nM.
For the compound `C[C@@H](NS(=O)(=O)c1cccc2c(N(C)C)cccc12)c1[nH]nc(-c2ccc(F)cc2)c1-c1ccncc1` [Example B-0444], the concentration for half-maximal inhibition (IC50) was determined as 1010 nM.
`Clc1ccc(-c2n[nH]c(C3CCNCC3)c2-c2ccncn2)cc1` [Example C-136]: the IC50 was found to be 32 nM.
With `CCS(=O)(=O)NC(Cc1ccccc1)c1[nH]nc(-c2ccc(F)cc2)c1-c1ccncc1` (centres unmarked) [Example B-0717], the IC50 worked out at 4300 nM.
On the same count and under the same terms, with `Cc1cccc(C(=O)NCc2[nH]nc(-c3ccc(F)cc3)c2-c2ccncc2)c1` [Example B-0290] the figure was 660 nM; with `Cc1cccc(C(=O)N[C@H](C)c2[nH]nc(-c3ccc(F)cc3)c2-c2ccncc2)c1` [Example B-0515], 420 nM.
Same read-out and setting: to `COc1ccc(CC(=O)N[C@H](C)c2[nH]nc(-c3ccc(F)cc3)c2-c2ccncc2)cc1OC` [Example B-0371] belongs 490 nM; to `C[C@@H](NC(=O)c1cccc(C(F)(F)F)c1F)c1[nH]nc(-c2ccc(F)cc2)c1-c1ccncc1` [Example B-0510], 690 nM.
